According to ChEMBL document CHEMBL3885881, “DrugMatrix”:

Species on record: Rattus norvegicus
Experiment: DrugMatrix - Regimen: Daily Repeat
Format: toxicity, organism-based, Sprague-Dawley
Design: regimen Daily Repeat, gender Male, age 6-8 weeks
Conditions: in vivo, po, route oral GAVAGE, dose level Low; for ABSOLUTE BASOPHIL / ABSOLUTE EOSINOPHIL / ABSOLUTE LYMPHOCYTE / ABSOLUTE MONOCYTE / ABSOLUTE SEGMENTED NEUTROPHIL / BASOPHIL / EOSINOPHIL / ERYTHROCYTE COUNT / HEMATOCRIT / HEMOGLOBIN / LEUKOCYTE COUNT / LYMPHOCYTE / MEAN CORPUSCULAR HEMOGLOBIN / MEAN CORPUSCULAR HEMOGLOBIN CONCENTRATION / MEAN CORPUSCULAR VOLUME / MONOCYTE / NEUTROPHIL / NUCLEATED RED BLOOD CELLS / PLATELET COUNT: tissue Blood; for ALANINE AMINOTRANSFERASE / ALBUMIN / ALKALINE PHOSPHATASE / ASPARTATE AMINOTRANSFERASE / BLOOD UREA NITROGEN / CARBON DIOXIDE / CHLORIDE / CHOLESTEROL / CREATININE / GLUCOSE / LACTATE DEHYDROGENASE / LIPASE / PHOSPHORUS / POTASSIUM / SODIUM / TOTAL BILIRUBIN / TOTAL PROTEIN / URIC ACID / CREATINE PHOSPHOKINASE: tissue Plasma
[1] = 200 mg/kg, 72 h, time 3 day, […]
[2] = 200 mg/kg, 120 h, time 5 day, […]
[3] = 90 mg/kg, 72 h, time 3 day, vehicle 100 % WATER
[4] = 90 mg/kg, 120 h, time 5 day, vehicle 100 % WATER

CCOc1ccc(NC(C)=O)cc1 [PHENACETIN]
ABSOLUTE BASOPHIL [1]: 0 CELLS/uL | ABSOLUTE EOSINOPHIL [1]: 0 CELLS/uL | ABSOLUTE LYMPHOCYTE [1]: 12319.33 CELLS/uL | ABSOLUTE MONOCYTE [1]: 297 CELLS/uL | ABSOLUTE SEGMENTED NEUTROPHIL [1]: 1617 CELLS/uL | BASOPHIL [1]: 0% | EOSINOPHIL [1]: 0% | ERYTHROCYTE COUNT [1]: 5.63 x10E6/uL | HEMATOCRIT [1]: 34.9% | HEMOGLOBIN [1]: 13.6 G/DL | LEUKOCYTE COUNT [1]: 14.23 x10E3/uL | LYMPHOCYTE [1]: 87% | MEAN CORPUSCULAR HEMOGLOBIN [1]: 24.17 pg | MEAN CORPUSCULAR HEMOGLOBIN CONCENTRATION [1]: 38.97 G/DL | MEAN CORPUSCULAR VOLUME [1]: 62.03 fL | MONOCYTE [1]: 2% | NEUTROPHIL [1]: 11% | NUCLEATED RED BLOOD CELLS [1]: 0 /100WBC | PLATELET COUNT [1]: 1192.67 x10E3/uL | ALANINE AMINOTRANSFERASE [1]: 73 u/L | ALBUMIN [1]: 4.07 G/DL | ALKALINE PHOSPHATASE [1]: 405 u/L | ASPARTATE AMINOTRANSFERASE [1]: 98.33 u/L | BLOOD UREA NITROGEN [1]: 12 mg/dL | CARBON DIOXIDE [1]: 24.67 mmol/L | CHLORIDE [1]: 101 MEQ/L | CHOLESTEROL [1]: 65.33 mg/dL | CREATININE [1]: 0.2 mg/dL | GLUCOSE [1]: 172 mg/dL | LACTATE DEHYDROGENASE [1]: 186.33 u/L | LIPASE [1]: 11.33 u/L | PHOSPHORUS [1]: 11.6 mg/dL | POTASSIUM [1]: 6.01 MEQ/L | SODIUM [1]: 142.63 MEQ/L | TOTAL BILIRUBIN [1]: 0.2 mg/dL | TOTAL PROTEIN [1]: 5.6 G/DL | URIC ACID [1]: 1.77 mg/dL | ABSOLUTE BASOPHIL [2]: 0 CELLS/uL | ABSOLUTE EOSINOPHIL [2]: 0 CELLS/uL | ABSOLUTE LYMPHOCYTE [2]: 14305.33 CELLS/uL | ABSOLUTE MONOCYTE [2]: 246 CELLS/uL | ABSOLUTE SEGMENTED NEUTROPHIL [2]: 1648.67 CELLS/uL | BASOPHIL [2]: 0% | EOSINOPHIL [2]: 0% | ERYTHROCYTE COUNT [2]: 5.8 x10E6/uL | HEMATOCRIT [2]: 35.23% | HEMOGLOBIN [2]: 14.07 G/DL | LEUKOCYTE COUNT [2]: 16.2 x10E3/uL | LYMPHOCYTE [2]: 88% | MEAN CORPUSCULAR HEMOGLOBIN [2]: 24.27 pg | MEAN CORPUSCULAR HEMOGLOBIN CONCENTRATION [2]: 39.93 G/DL | MEAN CORPUSCULAR VOLUME [2]: 60.8 fL | MONOCYTE [2]: 1.67% | NEUTROPHIL [2]: 10.33% | NUCLEATED RED BLOOD CELLS [2]: 0 /100WBC | PLATELET COUNT [2]: 1381.67 x10E3/uL | ALANINE AMINOTRANSFERASE [2]: 72.67 u/L | ALBUMIN [2]: 4.13 G/DL | ALKALINE PHOSPHATASE [2]: 403.33 u/L | ASPARTATE AMINOTRANSFERASE [2]: 95.33 u/L | BLOOD UREA NITROGEN [2]: 13.33 mg/dL | CARBON DIOXIDE [2]: 31.33 mmol/L | CHLORIDE [2]: 101.33 MEQ/L | CHOLESTEROL [2]: 68.67 mg/dL | CREATINE PHOSPHOKINASE [2]: 257.33 u/L | CREATININE [2]: 0.19 mg/dL | GLUCOSE [2]: 164.67 mg/dL | LACTATE DEHYDROGENASE [2]: 323.67 u/L | LIPASE [2]: 11.67 u/L | PHOSPHORUS [2]: 10.7 mg/dL | POTASSIUM [2]: 6.24 MEQ/L | SODIUM [2]: 143.9 MEQ/L | TOTAL BILIRUBIN [2]: 0.2 mg/dL | TOTAL PROTEIN [2]: 5.87 G/DL | URIC ACID [2]: 1.77 mg/dL

CC(NC(C)(C)C)C(=O)c1cccc(Cl)c1 (stereo not drawn) [BUPROPION]
ABSOLUTE BASOPHIL [3]: 0 CELLS/uL | ABSOLUTE EOSINOPHIL [3]: 0 CELLS/uL | ABSOLUTE LYMPHOCYTE [3]: 10359.67 CELLS/uL | ABSOLUTE MONOCYTE [3]: 103.67 CELLS/uL | ABSOLUTE SEGMENTED NEUTROPHIL [3]: 603.33 CELLS/uL | BASOPHIL [3]: 0% | EOSINOPHIL [3]: 0% | ERYTHROCYTE COUNT [3]: 5.5 x10E6/uL | HEMATOCRIT [3]: 35.63% | HEMOGLOBIN [3]: 13.4 G/DL | LEUKOCYTE COUNT [3]: 11.07 x10E3/uL | LYMPHOCYTE [3]: 93.67% | MEAN CORPUSCULAR HEMOGLOBIN [3]: 24.4 pg | MEAN CORPUSCULAR HEMOGLOBIN CONCENTRATION [3]: 37.63 G/DL | MEAN CORPUSCULAR VOLUME [3]: 64.83 fL | MONOCYTE [3]: 1% | NEUTROPHIL [3]: 5.33% | NUCLEATED RED BLOOD CELLS [3]: 0 /100WBC | PLATELET COUNT [3]: 1176 x10E3/uL | ALANINE AMINOTRANSFERASE [3]: 40 u/L | ALBUMIN [3]: 4.5 G/DL | ALKALINE PHOSPHATASE [3]: 417.67 u/L | ASPARTATE AMINOTRANSFERASE [3]: 84.67 u/L | BLOOD UREA NITROGEN [3]: 16.33 mg/dL | CARBON DIOXIDE [3]: 31 mmol/L | CHLORIDE [3]: 99.33 MEQ/L | CHOLESTEROL [3]: 95 mg/dL | CREATINE PHOSPHOKINASE [3]: 325 u/L | CREATININE [3]: 0.19 mg/dL | LACTATE DEHYDROGENASE [3]: 154.67 u/L | LIPASE [3]: 9 u/L | PHOSPHORUS [3]: 10.93 mg/dL | POTASSIUM [3]: 6.49 MEQ/L | SODIUM [3]: 143.13 MEQ/L | TOTAL BILIRUBIN [3]: 0.17 mg/dL | TOTAL PROTEIN [3]: 6.53 G/DL | URIC ACID [3]: 0.73 mg/dL | ABSOLUTE BASOPHIL [4]: 0 CELLS/uL | ABSOLUTE EOSINOPHIL [4]: 55.33 CELLS/uL | ABSOLUTE LYMPHOCYTE [4]: 14977 CELLS/uL | ABSOLUTE MONOCYTE [4]: 411.67 CELLS/uL | ABSOLUTE SEGMENTED NEUTROPHIL [4]: 2222.67 CELLS/uL | BASOPHIL [4]: 0% | EOSINOPHIL [4]: 0.33% | ERYTHROCYTE COUNT [4]: 5.73 x10E6/uL | HEMATOCRIT [4]: 37.5% | LEUKOCYTE COUNT [4]: 17.67 x10E3/uL | LYMPHOCYTE [4]: 86.67% | MEAN CORPUSCULAR HEMOGLOBIN [4]: 24.83 pg | MEAN CORPUSCULAR HEMOGLOBIN CONCENTRATION [4]: 37.83 G/DL | MEAN CORPUSCULAR VOLUME [4]: 65.57 fL | MONOCYTE [4]: 2% | NEUTROPHIL [4]: 11% | NUCLEATED RED BLOOD CELLS [4]: 0 /100WBC | PLATELET COUNT [4]: 1410.67 x10E3/uL | ALANINE AMINOTRANSFERASE [4]: 37.67 u/L | ALBUMIN [4]: 4.67 G/DL | ALKALINE PHOSPHATASE [4]: 328 u/L | ASPARTATE AMINOTRANSFERASE [4]: 72 u/L | BLOOD UREA NITROGEN [4]: 17.33 mg/dL | CARBON DIOXIDE [4]: 32.33 mmol/L | CHLORIDE [4]: 100 MEQ/L | CHOLESTEROL [4]: 93.67 mg/dL | CREATINE PHOSPHOKINASE [4]: 263 u/L | CREATININE [4]: 0.21 mg/dL | LACTATE DEHYDROGENASE [4]: 145 u/L | LIPASE [4]: 9.33 u/L | PHOSPHORUS [4]: 12.6 mg/dL | POTASSIUM [4]: 8.49 MEQ/L | SODIUM [4]: 144.5 MEQ/L | TOTAL BILIRUBIN [4]: 0.23 mg/dL | TOTAL PROTEIN [4]: 6.77 G/DL | URIC ACID [4]: 1.6 mg/dL
